# Test results published in US10155021B2, “Antimicrobial 4-oxoquinolizines” (Emergent Product Development Gaithersburg Inc., priority 2011, dated 2018).
# Like-named read-outs stand apart in the source and are kept apart here.
# How the values were obtained:
# S. aureus SMITH = experiment: MIC, panel of quinolone-resistant strains (CLSI); format: cell-based; details: Staphylococcus aureus; CIP R
# A. baumannii A 401 = experiment: MIC determination for Acinetobacter strains (Example 3); format: cell-based; details: A401, LEV R, CIP R, AMK R, TET R
# E. coli CTX-M-15 = experiment: MIC, panel of quinolone-resistant strains (CLSI); format: cell-based; details: Escherichia coli, CTXM15; CIP R, ESBL
# S. pneumoniae 49619 = experiment: MIC, panel of quinolone-resistant strains (CLSI); format: cell-based; details: Streptococcus pneumoniae, LEV S
# S. epidermis 12228 = experiment: MIC, standard panel of Gram-positive and Gram-negative bacteria (CLSI); format: cell-based, Staphylococcus epidermis; details: Staphylococcus, 12228; CAMHB; read-out: MIC S. epidermis 12228
# E. coli IMP = experiment: microbe, parasite or virus in culture; details: Escherichia coli, read-out: MIC E. coli IMP
# A. baumannii A390 [1] = experiment: MIC determination for Acinetobacter strains (Example 3); format: cell-based; details: LEV R, CIP R, MRP R, IPM I, AMK R, TET I
# A. baumannii A390 [2] = experiment: MIC without and with sub-inhibitory polymyxin B (Example 4); format: cell-based, Acinetobacter baumannii; details: Acinetobacter baumannii, A390, A. baumannii A390, without polymyxin B, read-out: MIC without PB
# A. Baumanii OXA-51 = experiment: MIC, panel of quinolone-resistant strains (CLSI); format: cell-based; details: Acinetobacter baumannii; CIP R, ESBL
# A. baumannii A387 [3] = experiment: MIC without and with sub-inhibitory polymyxin B (Example 4); format: cell-based, Acinetobacter baumannii; details: Acinetobacter baumannii, A387, A. baumannii A387, without polymyxin B, read-out: MIC without PB
# A. baumannii J2 [4] = experiment: as above; format: cell-based, Acinetobacter baumannii; details: Acinetobacter baumannii, J2, A. baumannii J2, without polymyxin B, read-out: MIC without PB
# S. aureus 25923 = experiment: MIC, standard panel of Gram-positive and Gram-negative bacteria (CLSI); format: cell-based, Staphylococcus aureus; details: Staphylococcus aureus, 25923; CAMHB; read-out: MIC S. aureus 25923
# A. baumannii ATCC 19606 = experiment: MIC determination for Acinetobacter strains (Example 3); format: cell-based; details: ATCC19606, reference strain
# P. aeruginosa 27853 = experiment: MIC, standard panel of Gram-positive and Gram-negative bacteria (CLSI); format: cell-based, Pseudomonas aeruginosa; details: Pseudomonas aeruginosa, 27853; CAMHB; read-out: MIC P. aeruginosa 27853
# S. pneumoniae 1027 = experiment: MIC, panel of quinolone-resistant strains (CLSI); format: cell-based; details: Streptococcus pneumoniae, LEV R
# B. thailandensis = experiment: microbe, parasite or virus in culture; format: cell-based, Burkholderia thailandensis; details: Burkholderia thailandensis, read-out: MIC90 B. thailandensis
# A. baumannii A473 = experiment: MIC determination for Acinetobacter strains (Example 3); format: cell-based; details: LEV R, CIP R, MRP R, IMP R, AMK R, TET R
# [5] = test system: 11 strains of A. baumannii and one strain of Acinetobacter sp.; experiment: Preliminary MBC without and with sub-inhibitory polymyxin B, whole panel (Example 4; also strains not listed separately); format: cell-based; details: Acinetobacter baumannii, read-out: MBC without PB
# A. baumannii A489 = experiment: MIC determination for Acinetobacter strains (Example 3); format: cell-based; details: LEV R, CIP R, MRP R, IMP R, AMK R, TET R
# A. baumannii A387 [6] = experiment: as above; format: cell-based; details: LEV I, CIP R, IPM R, AMK R, TET R
# E. coli 25922 = experiment: MIC, standard panel of Gram-positive and Gram-negative bacteria (CLSI); format: cell-based, Escherichia coli; details: Escherichia coli, 25922; CAMHB; read-out: MIC E. coli 25922
# A. baumannii A387 [7] = experiment: Preliminary MBC without and with sub-inhibitory polymyxin B (Example 4); format: cell-based, Acinetobacter baumannii; details: Acinetobacter baumannii, A387, A. baumannii A387, without polymyxin B, 2nd experiment, read-out: MBC without PB
# A. baumannii J2 [8] = experiment: MIC determination for Acinetobacter strains (Example 3); format: cell-based; details: LEV R, CIP R
Compound,MIC (S. aureus SMITH) [µg/mL],MIC (A. baumannii A 401) [µg/mL],MIC (E. coli CTX-M-15) [µg/mL],MIC (S. pneumoniae 49619) [µg/mL],MIC (S. epidermis 12228) [µg/mL],MIC (E. coli IMP) [µg/mL],MIC (A. baumannii A390 [1]) [µg/mL],MIC (A. baumannii A390 [2]; 1st experiment) [µg/mL],MIC (A. Baumanii OXA-51) [µg/mL],"MIC (A. baumannii A387 [3]; 2nd experiment, visual reading) [µg/mL]","MIC (A. baumannii J2 [4]; 2nd experiment, visual reading) [µg/mL]",MIC (S. aureus 25923) [µg/mL],MIC (P. aeruginosa 27853) [µg/mL],MIC90 (B. thailandensis) [µg/mL],other results
"Cc1c(-c2ccc(N)cc2)ccn2c(=O)c(C(=O)O)cc(C3CC3)c12 [Compound 8, 8-(4-amino-phenyl)-1-cyclopropyl-9-methyl-4-oxo-quinolizine-3-carboxylic acid]",< 0.03,32,> 32,< 0.03,< 0.008,< 0.008,16,16,4,1,4,< 0.008,1,< 0.024,"MIC (A. baumannii A390 [2]; 2nd experiment, visual reading): 16 µg/mL; MIC (A. baumannii ATCC 19606): 1 µg/mL; MIC (S. pneumoniae 1027): 2 µg/mL"
"Cc1c(-c2cc(F)c(N)cc2F)ccn2c(=O)c(C(=O)O)cc(C3CC3)c12 [Compound 2, 8-(3,6-difluoro-4-amino-phenyl)-1-cyclopropyl-9-methyl-4-oxo-quinolizine-3-carboxylic acid]",< 0.03,4,> 32,< 0.03,< 0.008,< 0.008,8,8,4,1,4,< 0.008,2,< 0.048,"MIC (A. baumannii A473): 8 µg/mL; MBC ([5]; A. baumannii A14, without polymyxin B, 1st experiment): 16 µg/mL; MBC ([5]; A. baumannii A14, without polymyxin B, 2nd experiment): 16 µg/mL; MBC ([5]; NCTC13301, A. baumannii NCTC 13301, without polymyxin B, 1st experiment): 8 µg/mL; MBC ([5]; NCTC13301, A. baumannii NCTC 13301, without polymyxin B, 2nd experiment): 32 µg/mL; MIC (A. baumannii A489): 2 µg/mL; MIC (A. baumannii A387 [6]): 0.5 µg/mL; MIC (A. baumannii A387 [3]; 1st experiment): 0.5 µg/mL; MIC (A. baumannii J2 [4]; 1st experiment): 4 µg/mL; MIC (E. coli 25922): < 0.03 µg/mL; MBC (A. baumannii A387 [7]): 1 µg/mL; MIC (A. baumannii J2 [8]): 4 µg/mL"
